Measured values as given in patent publication US9618524B2, “Method, composition, isolation and identification of a plaque particle and related biomarker” (Plaxgen Inc., priority 2012, dated 2017).

Tests used:
Assay in all cases: Mass spectroscopy proteomics, semi-quantitative binding affinity of serum proteins (plaqueproteome, Table 2)
Settings in all cases: higher number = stronger affinity
[1] = target: T1, alpha-synuclein plaque particles (Homo sapiens, UniProt P37840)
T1 construct: 140 amino acids polypeptide
Summary of the method: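 AD-subject plasma or serum (800 μL of 50%) mixed with 30 μg preformed alpha-synuclein aggregates for 1 h at 37 °C; Thioflavin S-positive particles isolated by flow sorting. After reduction, acrylamide alkylation and overnight tryptic digestion, serum proteins identified by MS/MS with Sequest and Scaffold.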

[2] = test system: High Density cholesterol (Chl Large) plaque particles; set-up: species or system human
Summary of the method: (§1)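 Serum or plasma from atherosclerotic subjects, as 50% serum, was incubated with 30 μg cholesterol aggregates for 1 h at 37 °C. High- and low-density particles were then flow-sorted, trypsin-digested and analysed by MS/MS. Proteins were identified by Sequest search against human UniProt and validated with Protein Prophet.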

[3] = test system: Low density cholesterol (Chl small) plaque particles; set-up: species or system human
Summary of the method: as §1

[4] = target: T2, Abeta-42 plaque particles (Homo sapiens, UniProt P05067)
T2 construct: Abeta 1-42
Summary of the method: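 AD patient serum or plasma (50% in PBS) was incubated with Abeta-42 aggregates (30 μg) for 1 h at 37 °C, then stained with Thioflavin S for 30 min. Labeled particles were FACS-sorted, trypsin/Lys-C digested overnight and analyzed by MS/MS. Sequest searched human UniProt; Scaffold/Protein Prophet validated the identifications.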

Tau plaque particles = test system: Tau plaque particles; set-up: species or system human
Summary of the method: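 Serum or plasma proteins captured on Thioflavin S-labelled Tau plaque particles (Tau-74, Tau-275 oligomers preformed in PBS at 37° C for 2 h; 1 h co-incubation at 37° C) were isolated by FACS sorting, then tryptically digested and identified by MS/MS (Sequest, human UniProt, strict trypsin).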

Substance | Semi-quantitative analysis of proteins binding to different plaque particles: Synuclein [1] | Semi-quantitative analysis of proteins binding to different plaque particles: Chl Large [2] | Semi-quantitative analysis of proteins binding to different plaque particles: Chl small [3] | Semi-quantitative analysis of proteins binding to different plaque particles: Abeta-42 [4] | Semi-quantitative analysis of proteins binding to different plaque particles: Tau (Tau plaque particles)
Filaggrin | 0 | 0 | 0 | 2 | 0
Filaggrin-2 | 0 | 0 | 0 | 4 | 0
Gelsolin | 6 | 8 | 9 | 2 | 9
Glyceraldehyde-3-phosphate dehydrogenase | 0 | 0 | 0 | 5 | 0
Haptoglobin | 22 | 27 | 29 | 23 | 24
Hemoglobin subunit alpha | 5 | 4 | 5 | 2 | 5
Hemoglobin subunit delta | 2 | 0 | 0 | 0 | 0
Hemopexin | 18 | 22 | 16 | 11 | 16
Histone H1.2 | 0 | 0 | 0 | 2 | 0
Hornerin | 0 | 0 | 0 | 2 | 1
Ig alpha-1 chain C region | 11 | 10 | 8 | 9 | 12
Ig gamma-1 chain C region | 44 | 41 | 51 | 12 | 27
Ig gamma-4 chain C region | 8 | 7 | 11 | 7 | 11
Ig heavy chain V-III region BRO | 4 | 5 | 6 | 7 | 5
Ig heavy chain V-III region BUT | 1 | 1 | 1 | 2 | 1
Ig heavy chain V-III region Gal | 2 | 0 | 1 | 2 | 4
Ig heavy chain V-III region JON | 1 | 0 | 1 | 0 | 1
Ig heavy chain V-III region NIE | 1 | 1 | 1 | 0 | 0
Ig heavy chain V-III region TEI | 3 | 4 | 5 | 5 | 4
Ig heavy chain V-III region TIL | 0 | 0 | 2 | 5 | 2
Ig heavy chain V-III region TUR | 1 | 2 | 3 | 4 | 0
Ig heavy chain V-III region VH26 | 1 | 2 | 3 | 7 | 3
